# Test results as given in patent US20100215716A1, “COMPOSITIONS AND METHODS FOR COATING ORTHOPEDIC IMPLANTS” (Biomet Manufacturing Corp., priority 2009, published 2010).
# Experiment: Solubility of antibiotics and polymer in organic solvents
structure (smiles),measurement,value
CC[C@H]1OC(=O)[C@H](C)[C@@H](O[C@H]2C[C@@](C)(OC)[C@@H](O)[C@H](C)O2)[C@H](C)[C@@H](O[C@@H]2O[C@H](C)C[C@H](N(C)C)[C@H]2O)[C@](C)(O)C[C@@H](C)C(=O)[C@H](C)[C@@H](O)[C@]1(C)O [erythromycin],"solubility in ethyl acetate, dichloromethane, and tetrahydrofuran",dissolved
